Test results as given in patent US11059780B2, “Substituted pyrrolidine compound and use thereof” (Takeda Pharmaceutical Company Limited, priority 2017, dated 2021).

biological target: T1, human orexin type 2 receptor (hOX2R) (Homo sapiens, UniProt O43614); test: Measurement of orexin type 2 receptor agonist activity (Fluo-4 calcium fluorescence, CHO cells forcibly expressing human OX2 receptor); type: cell-based; settings: test compound 3 μM, DMSO = 0%, orexin A (human) 10 nM = 100%
T1 construct: expressed in transfected cells
T1 sequence (O43614 1-444): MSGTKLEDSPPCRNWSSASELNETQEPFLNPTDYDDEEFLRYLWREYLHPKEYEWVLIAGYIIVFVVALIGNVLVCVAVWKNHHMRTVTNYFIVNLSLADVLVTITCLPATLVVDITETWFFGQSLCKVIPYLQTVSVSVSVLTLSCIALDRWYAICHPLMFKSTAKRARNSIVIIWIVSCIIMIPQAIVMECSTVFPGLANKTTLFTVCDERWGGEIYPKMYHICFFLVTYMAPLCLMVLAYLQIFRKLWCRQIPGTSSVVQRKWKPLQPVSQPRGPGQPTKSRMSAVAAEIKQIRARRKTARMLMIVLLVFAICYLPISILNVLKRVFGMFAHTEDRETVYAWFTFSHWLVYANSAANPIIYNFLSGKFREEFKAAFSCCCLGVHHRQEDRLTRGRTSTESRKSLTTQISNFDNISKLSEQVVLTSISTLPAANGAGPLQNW
Source text: Experimental Example 1: Obtainment of Cell Stably Expressing Human Orexin Type 2 Receptor (hOX2R)
To obtain a cell clone stably expressing human orexin type 2 receptor, human orexin type 2 receptor cDNA was inserted into pcDNA3.1(+) plasmid vector (Invitrogen), and a plasmid DNA for expression of human orexin type 2 receptor (pcDNA3.1(+)/hOX2R) was cloned. The plasmid DNA was introduced into CHO-dhfr cell by an electroporation method, and human orexin type 2 receptor expressing clone cells were obtained by limiting dilution method by using G418 drug resistance as a selection marker.
Experimental Example 2: Measurement of Orexin Type 2 Receptor Agonist Activity
CHO cells forcibly expressing human OX2 receptor were seeded in each well of 384 well black transparent bottom plate (BD Falcon) at 7,500 cells/well, and cultured for one day in a 5% CO2 incubator at 37° C. After removal of the medium in the cell plate, assay buffer A containing a calcium indicator (HBSS (Life Technologies), 20 mM HEPES (Life Technologies), 0.1% BSA (Wako Pure Chemical Industries, Ltd.), 2.5 μg/mL Fluo-4 AM (DOJINDO Chemical), 0.08% Pluronic F127 (DOJINDO Chemical), 1.25 mM probenecid (DOJINDO Chemical)) was added at 30 μL/well. The plate was stood for 30 min in a 5% CO2 incubator at 37° C., and further stood at room temperature for 30 min. A test compound prepared by diluting with assay buffer B (HBSS, 20 mM HEPES, 0.1% BSA) was added at 10 μL/well, and the fluorescence value was measured by FDSSpCELL (Hamamatsu Photonics K.K.) every one sec for 1 min, and thereafter every two sec for 1 min 40 sec. The activity (%) of the test compound was calculated assuming that variation in the fluorescence value when DMSO was added instead of the test compound was 0% […], and variation in the fluorescence value when orexin A (human) (PEPTIDE INSTITUTE, INC.) was added at the final concentration of 10 nM was 100% […]. The activity of each compound at the concentration of 3 μM was shown below.

OX2R agonist activity (3 μM, %) [%]	Structure (SMILES)
82	COC1CN(C(=O)c2cc(C)ccc2C)CC1Oc1cccc(NS(=O)(=O)N2CC[C@H]3CCN(C)C[C@@H]32)c1 (relative stereo) [Example 76, trans-N-(3-((1-(2,5-dimethylbenzoyl)-4-methoxypyrrolidin-3-yl)oxy)phenyl)-6-methyloctahydro-1H-pyrrolo[2,3-c]pyridine-1-sulfonamide]
94	COC1CN(C(=O)c2cc(C)ccc2C)CC1Oc1cccc(NS(=O)(=O)N2C[C@@H]3CC[C@@H](C2)O3)c1 (relative stereo) [Example 80, trans-N-(3-((1-(2,5-dimethylbenzoyl)-4-methoxypyrrolidin-3-yl)oxy)phenyl)-8-oxa-3-azabicyclo[3.2.1]octane-3-sulfonamide]
75	COc1ccccc1C1CCCN1S(=O)(=O)Cc1cccc(O[C@@H]2CN(C(=O)c3cc(C)ccc3C)C[C@H]2OC)c1 (relative stereo) [Example 83, trans-(2,5-dimethylphenyl)(3-methoxy-4-(3-(((2-(2-methoxyphenyl)pyrrolidin-1-yl)sulfonyl)methyl)phenoxy)pyrrolidin-1-yl)methanone]
67	CO[C@@H]1CN(C(=O)c2cc(C)ccc2C)C[C@H]1Oc1ccc(F)c(CS(=O)(=O)N2CCCC2c2ccccn2)c1 (relative stereo) [Example 87, trans-(2,5-dimethylphenyl)(3-(4-fluoro-3-(((2-(pyridin-2-yl)pyrrolidin-1-yl)sulfonyl)methyl)phenoxy)-4-methoxypyrrolidin-1-yl)methanone]
96	CO[C@@H]1CN(C(=O)c2cc(C)ccc2C)C[C@H]1Oc1cccc(CS(=O)(=O)N2CCC23CN(C(C)=O)C3)c1 (relative stereo) [Example 90, trans-1-(1-((3-((1-(2,5-dimethylbenzoyl)-4-methoxypyrrolidin-3-yl)oxy)benzyl)sulfonyl)-1,6-diazaspiro[3.3]hept-6-yl)ethanone]
70	CO[C@@H]1CN(C(=O)c2cc(C)ccc2C)C[C@H]1Oc1cc(F)cc(CS(=O)(=O)N2CCCC2c2ccccn2)c1 (relative stereo) [Example 91, trans-(2,5-dimethylphenyl)(3-(3-fluoro-5-(((2-(pyridin-2-yl)pyrrolidin-1-yl)sulfonyl)methyl)phenoxy)-4-methoxypyrrolidin-1-yl)methanone]
93	COc1cccc(OC)c1C(=O)N1C[C@@H](OC)[C@H](Oc2cccc(CS(=O)(=O)N3CCCC3c3ccccn3)c2)C1 (relative stereo) [Example 100, trans-(2,6-dimethoxyphenyl)(3-methoxy-4-(3-(((2-(pyridin-2-yl)pyrrolidin-1-yl)sulfonyl)methyl)phenoxy)pyrrolidin-1-yl)methanone]
74	COc1ccc(Cl)cc1C(=O)N1C[C@@H](OC)[C@H](Oc2cccc(CS(=O)(=O)N3CCCC3c3ccccn3)c2)C1 (relative stereo) [Example 108, trans-(5-chloro-2-methoxyphenyl)(3-methoxy-4-(3-(((2-(pyridin-2-yl)pyrrolidin-1-yl)sulfonyl)methyl)phenoxy)pyrrolidin-1-yl)methanone]
67	CO[C@@H]1CN(C(=O)c2cc(C)ccc2C)C[C@H]1Oc1cccc(C(F)S(=O)(=O)N2CCCC2c2ccccn2)c1 (relative stereo) [Example 110, trans-(2,5-dimethylphenyl)(3-(3-(fluoro((2-(pyridin-2-yl)pyrrolidin-1-yl)sulfonyl)methyl)phenoxy)-4-methoxypyrrolidin-1-yl)methanone]
77	CO[C@@H]1CN(C(=O)c2cc(C)ccc2C)C[C@H]1Oc1cccc(CS(=O)(=O)N2CCCC2c2ccc(C)nc2)c1 (relative stereo) [Example 112, trans-(2,5-dimethylphenyl)(3-methoxy-4-(3-(((2-(6-methylpyridin-3-yl)pyrrolidin-1-yl)sulfonyl)methyl)phenoxy)pyrrolidin-1-yl)methanone]
100	CO[C@@H]1CN(C(=O)c2cc(C)ccc2C)C[C@H]1Oc1cccc(CS(=O)(=O)N2CCCC2c2cccnc2C)c1 (relative stereo) [Example 114, trans-(2,5-dimethylphenyl)(3-methoxy-4-(3-(((2-(2-methylpyridin-3-yl)pyrrolidin-1-yl)sulfonyl)methyl)phenoxy)pyrrolidin-1-yl)methanone]
68	COC1CN(C(=O)c2cc(C)ccc2C)CC1Oc1cc(NS(=O)(=O)N2C[C@@H]3C[C@H]3C2)cc(F)n1 (relative stereo) [Example 116, trans-N-(2-((1-(2,5-dimethylbenzoyl)-4-methoxypyrrolidin-3-yl)oxy)-6-fluoropyridin-4-yl)-3-azabicyclo[3.1.0]hexane-3-sulfonamide]
93	COC1CN(C(=O)c2cc(C)ccc2C)CC1Oc1cc(NS(=O)(=O)N2C[C@@H]3C[C@H]3C2)cc(C)n1 (relative stereo) [Example 117, trans-N-(2-((1-(2,5-dimethylbenzoyl)-4-methoxypyrrolidin-3-yl)oxy)-6-methylpyridin-4-yl)-3-azabicyclo[3.1.0]hexane-3-sulfonamide]
100	COc1cccc(C)c1C(=O)N1C[C@@H](OC)[C@H](Oc2cccc(CS(=O)(=O)N3CCCC3c3ccccn3)c2)C1 (relative stereo) [Example 119, trans-(2-methoxy-6-methylphenyl)(3-methoxy-4-(3-(((2-(pyridin-2-yl)pyrrolidin-1-yl)sulfonyl)methyl)phenoxy)pyrrolidin-1-yl)methanone]
102	CO[C@@H]1CN(C(=O)c2cc(C)ccc2C)C[C@H]1Oc1cccc(CS(=O)(=O)N2CCCC2c2ccc(C)nc2C)c1 (relative stereo) [Example 123, trans-(2,5-dimethylphenyl)(3-(3-(((2-(2,6-dimethylpyridin-3-yl)pyrrolidin-1-yl)sulfonyl)methyl)phenoxy)-4-methoxypyrrolidin-1-yl)methanone]
109	CCc1cccc(C)c1C(=O)N1C[C@@H](OC)[C@H](Oc2cccc(CS(=O)(=O)N(C)C3CCOC(C)(C)C3)c2)C1 (relative stereo) [Example 140, trans-N-(2,2-dimethyltetrahydro-2H-pyran-4-yl)-1-(3-((1-(2-ethyl-6-methylbenzoyl)-4-methoxypyrrolidin-3-yl)oxy)phenyl)-N-methylmethanesulfonamide]
115	COC1CN(C(=O)c2cc(C)ccc2C)CC1Oc1cccc(CS(=O)(=O)N(C)[C@@H]2CCOC[C@H]2F)c1 (relative stereo) [Example 142, trans-1-(3-((1-(2,5-dimethylbenzoyl)-4-methoxypyrrolidin-3-yl)oxy)phenyl)-N-(3-fluorotetrahydro-2H-pyran-4-yl)-N-methylmethanesulfonamide]
92	CO[C@@H]1CN(C(=O)c2cc(C)ccc2C)C[C@H]1Oc1cccc(C(C)S(=O)(=O)N(C)C2CCOCC2)c1 (relative stereo) [Example 143, trans-1-(3-((1-(2,5-dimethylbenzoyl)-4-methoxypyrrolidin-3-yl)oxy)phenyl)-N-methyl-N-(tetrahydro-2H-pyran-4-yl)ethanesulfonamide]
45	CO[C@@H]1CN(C(=O)C(F)(F)c2ccccc2)C[C@H]1Oc1cccc(CS(=O)(=O)N(C)C2CCOCC2)c1 (relative stereo) [Example 145, trans-1-(3-((1-(difluoro(phenyl)acetyl)-4-methoxypyrrolidin-3-yl)oxy)phenyl)-N-methyl-N-(tetrahydro-2H-pyran-4-yl)methanesulfonamide]
37	CO[C@@H]1CN(C(=O)C2(c3ccccc3)CCC2)C[C@H]1Oc1cccc(CS(=O)(=O)N(C)C2CCOCC2)c1 (relative stereo) [Example 147, trans-1-(3-((4-methoxy-1-((1-phenylcyclobutyl)carbonyl)pyrrolidin-3-yl)oxy)phenyl)-N-methyl-N-(tetrahydro-2H-pyran-4-yl)methanesulfonamide]
